Measurements published in patent publication US4990650A, “Aromatic derivative and preparation method thereof” (Teijin Limited, priority 1986, dated 1991).

Legend:
LTB4 production [1] = test: LTB4 production inhibition effect on iris of normal house rabbit; type: cell-based; details: Oryctolagus cuniculus, n=4; for inhibition at 100 µM: 10^-4 M; for inhibition at 10 µM: 10^-5 M; for inhibition at 1 µM: 10^-6 M; for inhibition at 0.1 µM: 10^-7 M
Protocol: LTB4 production inhibition effect on iris of normal house rabbit
The iris of a normal house rabbit was enucleated, dipped in 1 cc of Tylord solution for control and 1 cc of Tylord solution containing a certain level of medicament, and after 5 minutes, the Tylord solution was passed through a SEP-pack, the portion containing leucotriene was separated by HPLC, and the LTB4 amount was measured by radioimmunoassay. (n=4)

LTB4 production [2] = test: LTB4 production inhibition effect on human blood (Calcium ionophore-stimulated whole blood); type: cell-based; details: 10^-5 M Calcium ionophore, Control 20
Protocol: LTB4 production inhibition effect on human blood
A 10^-5 M amount of Calcium ionophore was added to human whole blood, followed by adding the compounds listed in Table 2 to evaluate the inhibition effect of these compounds on LTB4 production. The evaluation was carried out in a manner described in Gresele, P., Arnoult, J., Coene, M. C., Deckmyn, H., and Vermylen, J.: Leukotriene B4 production by stimulated whole blood: Comparative studies with isolated polymorphonuclear cells, Biochem. Biophys. Res. Commun. 137: 334-342, 1986.

[3] = test system: intraocular inflammation by Lipopoly saccharide from E. Coli; test: Effect of eye drops on endotoxin intraocular inflammation by Lipopoly saccharide from E. Coli; type: in vivo, white male house rabbit; details: 20 hours after LPS
Protocol: Effect on intraocular inflammation by Lipopoly saccharide from E. Coli
The eye drops of the compound (3), i.e., anthranylic acid amide of 8-(2-naphthyl)-5,6-trans-5,6-methano-7E-octenoic acid was prepared by formulating 3.8 mg of the compound (3) in 0.1 ml of ethanol followed by adding 0.9 ml of teel oil to obtain eye drops containing 0.38% of compound (3). The pH was 6.8.
The eye drops of the compound (7), i.e., 3,4-dimethoxy cinnamic acid ester of 8-(2-naphthyl)-5,6-trans-5,6-methano-7E-octene-1-ol were prepared by dissolving 5.3 mg of the compound (7) in 0.1 ml of ethanol upon heating at 70° C. to 80° C. followed by adding 0.9 ml of teel oil to obtain eye drops containing 0.53% of compound (7). The pH was 6.8.
Into one eye of a white male house rabbit having a body weight of 1.5 to 2.0 kg, were dropped the eye drops of the compounds (3) and (7), at 6 hours, 4 hours, and 1 hour before the experiment, and into the other eye, control eye drops containing 0.1 ml ethanol and 0.9 ml teel oil were dropped in the same manner.
To the vitreous body, 5 μg of lipopoly saccharide from E. coli (commercially available from Sigma) in 50 μl of physiolological saline was dropped. After 20 hours, the aqueous humor was taken and the protein content of the aqueous humor was determined by a Bio-rad assay method and the leucocyte in the aqueous humor was determined by a Neubauer Chamber. The LTB4 in the aqueous humor was determined by the HPLC and RIA methods.

| Compound | inhibition at 100 µM (LTB4 production [1]) [%] | inhibition at 10 µM (LTB4 production [1]) [%] | inhibition at 1 µM (LTB4 production [1]) [%] | inhibition at 0.1 µM (LTB4 production [1]) [%] | LTB4 production Amount (LTB4 production [2]; 10^-5 M) [µg/mL] | LTB4 production Amount (LTB4 production [2]; 10^-6 M) [µg/mL] | LTB4 production Amount (LTB4 production [2]; 10^-7 M) [µg/mL] | Leucocyle in aqueous ([3]; eye drops 0.38% at 6, 4 and 1 hour before, Control 10.1 × 10^5) | Aqueous protein ([3]; eye drops 0.38% at 6, 4 and 1 hour before, Control 30) [mg/mL] | LTB4 in aqueous ([3]; eye drops 0.38% at 6, 4 and 1 hour before, Control 150) [pg/mL] | Leucocyle in aqueous ([3]; eye drops 0.53% at 6, 4 and 1 hour before, Control 5.5 × 10^5) | Aqueous protein ([3]; eye drops 0.53% at 6, 4 and 1 hour before, Control 33) [mg/mL] | LTB4 in aqueous ([3]; eye drops 0.53% at 6, 4 and 1 hour before, Control 320) [pg/mL] |
| --- | --- | --- | --- | --- | --- | --- | --- | --- | --- | --- | --- | --- | --- |
| COC(=O)c1ccccc1NC(=O)CCC[C@H]1C[C@@H]1/C=C/c1ccc2ccccc2c1 (relative stereo) [Compound (3), Methyl anthranylate amide of 8-(2-naphthyl)-5,6-trans-5,6-methano-7E-octenoic acid] | 95 | 95 | 89 | 67 | 11 | 12 | 15 | 6.0 × 10^5 cells/ml | 40 | 7.5 | – | – | – |
| COc1ccc(/C=C/C(=O)OCCCC[C@H]2C[C@@H]2/C=C/c2ccc3ccccc3c2)cc1OC (relative stereo) [Compound (7), 3,4-Dimethoxycinnamic acid ester of 8-(2-naphthyl)-5,6-trans-5,6-methano-7 E-octene-1-ol] | 92 | 88 | 80 | 20 | 12 | 12 | 13 | – | – | – | 7.5 × 10^5 cells/ml | 41 | 170 |
| O=C(O)CCC[C@H]1C[C@@H]1/C=C/c1ccc2ccccc2c1 (relative stereo) [Reference compound, reference compound] | 35 | 0 | – | – | – | – | – | – | – | – | – | – | – |
